Experimental data published in ChEMBL document CHEMBL3600287, “New heterocyclic compounds: Synthesis and antitrypanosomal properties” (Bioorg Med Chem, 2015).
pIC50: −log10 of the molar value.

Legend:
[1] = tested on: Trypanosoma brucei brucei; test: Antitrypanosomal activity against Trypanosoma brucei brucei CMP infected in Swiss mouse assessed as mean survival time at 100 umol/kg, ip administered as single dose; type: functional
[2] = tested on: Trypanosoma brucei brucei; test: Antitrypanosomal activity against Trypanosoma brucei brucei CMP infected in Swiss mouse assessed as cure rate at 100 umol/kg, ip administered as single dose; type: functional
[3] = tested on: Mus musculus; test: Toxicity against Swiss mouse infected with Trypanosoma brucei brucei CMP assessed as animal death at 100 umol/kg, ip administered as single dose; type: organism-based; conditions: in vivo
[4] = tested on: Trypanosoma brucei brucei; test: Antitrypanosomal activity against Trypanosoma brucei brucei CMP infected in Swiss mouse assessed as parasite number level ul of blood at 100 umol/kg, ip administered as single dose measured on day 2; type: functional
[5] = tested on: Trypanosoma brucei brucei; test: Antitrypanosomal activity against Trypanosoma brucei brucei CMP infected in Swiss mouse assessed as parasite number level ul of blood at 100 umol/kg, ip administered as single dose measured on day 3; type: functional
[6] = tested on: Trypanosoma brucei brucei; test: Antitrypanosomal activity against Trypanosoma brucei brucei CMP infected in Swiss mouse assessed as parasite number level ul of blood at 100 umol/kg, ip administered as single dose measured on day 4; type: functional
[7] = tested on: Trypanosoma brucei gambiense; test: Antitrypanosomal activity against Trypanosoma brucei gambiense FeoITMAP/1893 assessed as inhibition of parasite growth after 72 hrs by resazurin dye based microplate reader analysis; type: functional, organism-based; conditions: FeoITMAP/1893, 72 h
[8] = Cytotoxicity against mouse 3T6 cells assessed as inhibition of cell proliferation after 48 hrs by MTT assay; type: cell-based
[9] = Selectivity index, ratio of CC50 for mouse 3T6 cells to IC50 for Trypanosoma brucei gambiense strain FeoITMAP/1893; type: functional
[10] = tested on: Trypanosoma brucei brucei; test: Antitrypanosomal activity against Trypanosoma brucei brucei CMP infected in Swiss mouse assessed as parasite number level ul of blood at 50 umol/kg, ip administered as single dose measured on day 2; type: functional
[11] = tested on: Trypanosoma brucei brucei; test: Antitrypanosomal activity against Trypanosoma brucei brucei CMP infected in Swiss mouse assessed as parasite number level ul of blood at 50 umol/kg, ip administered as single dose measured on day 3; type: functional
[12] = tested on: Trypanosoma brucei brucei; test: Antitrypanosomal activity against Trypanosoma brucei brucei CMP infected in Swiss mouse assessed as parasite number level ul of blood at 50 umol/kg, ip administered as single dose measured on day 4; type: functional
[13] = Cytotoxicity against monkey LLC-MK2 cells; type: cell-based, Macaca mulatta; conditions: rhesus monkey
[14] = tested on: Trypanosoma brucei brucei; test: Antitrypanosomal activity against Trypanosoma brucei brucei CMP infected in Swiss mouse assessed as mean survival time at 50 umol/kg, ip administered as single dose; type: functional
[15] = tested on: Trypanosoma brucei brucei; test: Antitrypanosomal activity against Trypanosoma brucei brucei CMP infected in Swiss mouse assessed as cure rate at 50 umol/kg, ip administered as single dose; type: functional
[16] = tested on: Mus musculus; test: Toxicity against Swiss mouse infected with Trypanosoma brucei brucei CMP assessed as animal death at 50 umol/kg, ip administered as single dose; type: organism-based; conditions: in vivo
[17] = tested on: Trypanosoma brucei brucei; test: Antitrypanosomal activity against Trypanosoma brucei brucei CMP infected in Swiss mouse assessed as parasite number level ul of blood at 100 umol/kg, ip administered as single dose measured on day 30; type: functional

| SMILES | MST [1] [days] | Activity [2] [%] | Activity [3] | Activity [4] [µL⁻¹] | Activity [5] [µL⁻¹] | Activity [6] [µL⁻¹] | pIC50 [7] | CC50 at 48 h [8] [µM] | Ratio CC50/IC50 [9] | other results |
| --- | --- | --- | --- | --- | --- | --- | --- | --- | --- | --- |
| CCN(CC)CCCC(C)Nc1ccnc2cc(Cl)ccc12.O=P(O)(O)O.O=P(O)(O)O (stereo not drawn) [CHLOROQUINE PHOSPHATE] | 0 | 0 | Non-toxic | 23.7 | 498 | 42607 |  |  |  |  |
| CCOC(=O)c1cn(C2CC2)c2cc(N3CCN(CC45CC6CC(CC(C6)C4)C5)CC3)c(F)cc2c1=O |  |  |  |  |  |  | 4.64 | 27.8 | 1.2 |  |
| Fc1ccc2[nH]c(-c3ccc(Nc4ccnc5cc(Cl)ccc45)cc3)nc2c1 | 1.2 | 0 | Non-toxic | 0 | 97 | 31590 | 5.70 |  | 5.3 | Activity [10]: 13.7 µL⁻¹; Activity [11]: 117 µL⁻¹; Activity [12]: 28317 µL⁻¹; CC50 [13]: 10.6 µM; MST [14]: 1.1 days; Activity [15]: 0%; Activity [16]: Non-toxic |
| CCOC(=O)c1cn(C2CC2)c2cc(N3CCNCC3)c(F)cc2c1=O [CIPROFLOXACIN ETHYL ESTER] |  |  |  |  |  |  | 4.59 | > 30 | 1.2 |  |
| N=C(N)c1ccc(OCCCCCOc2ccc(C(=N)N)cc2)cc1.O=S(=O)(O)CCO | >30 | 100 | Non-toxic |  | 0 | 0 |  |  |  | Activity [17]: 0 µL⁻¹ |
| Clc1ccc2c(Nc3ccc(-c4nc5ccccc5[nH]4)cc3)ccnc2c1 |  |  |  |  |  |  | 5.42 |  | 4.1 | CC50 [13]: 15.5 µM |
| CCOC(=O)c1cn(C2CC2)c2cc(N3CCN(Cc4ccccc4)CC3)c(F)cc2c1=O | 8.2 | 0 | Non-toxic | 0 | 0 | 0 | 5.22 | > 30 | 5 | Activity [10]: 0 µL⁻¹; Activity [11]: 0 µL⁻¹; Activity [12]: 7 µL⁻¹; MST [14]: 6.1 days; Activity [15]: 0%; Activity [16]: Non-toxic |
| O=C(O)c1cn(C2CC2)c2cc(N3CCNCC3)c(F)cc2c1=O [CIPROFLOXACIN] |  |  |  |  |  |  | 4.28 |  |  |  |
| N=C(N)c1ccc(OCCCCCOc2ccc(C(=N)N)cc2)cc1 [PENTAMIDINE] |  |  |  |  |  |  | 8.31 |  |  |  |
